# From patent publication US20250368687A1, “SHORT SYNTHETIC PEPTIDES AND USES THEREOF IN THE TREATMENT OF ENTEROVIRUS INFECTION” (CITY UNIVERSITY OF HONG KONG, priority 2024, published 2025)
# Key:
# Format in all cases: cell-based
# [1] = tested on: Hsp27 and hnRNP A1 redistribution in RD cells; test: Immunofluorescence colocalization assay of Hsp27/hnRNP A1 redistribution, RD cells with or without EV-A71 infection; details: 25 μM for 2h; for redistribution of Hsp27 and hnRNP A1 in EV-A71-infected RD cells: EV-A71 MOI 40 for 6h
# Procedure: (§1) The cells on coverslips were infected with EV-A71 at the multiplicity of infection (MOI) of 40 for 6 hrs to assure the high efficiency of viral infection. Then the cells were fixed by 4% paraformaldehyde for 20 min, permeabilized by 0.5% Triton X-100 for 15 min, blocked with 5% BSA for 2 hrs, and stained by incubation with anti-Hsp27 (GTX101145) and anti-hnRNP A1 (sc-32301) antibody, then with Alexa Fluor 488 conjugated anti-rabbit antibody and Alexa Fluor 594 conjugated anti-mouse antibody respectively. After washing four times with 0.2% Triton X-100, the nuclei were stained with DAPI or Hoechst for 5 min. The images were captured by a Nikon A1HD25 High speed and Large Field of View Confocal Microscope. Colocalization analysis was conducted using the JACoP-plugin of the extended ImageJ version Fiji. The M1 colocalization coefficient was computed to illustrate the colocalization levels of Hsp27 and hnRNP A1 overlapped with Hoechst.
# Hsp27 is predominantly located in the cytoplasm, however, stress (e.g., heat shock, virus infection) can induce partial redistribution of Hsp27 from the cytoplasm to the nucleus, concomitantly with its phosphorylation. We thus postulated that the cellular redistribution of Hsp27 may be associated with its phosphorylation upon EV-A71 infection. To verify the hypothesis, RD cells were with SB203580 at 0, 2, 4, and 8 μM for 2 h, and the cells were infected with EV-A71 for 6 h. […] The colocalization of Hsp27 and DAPI, which stands for the level of redistribution of Hsp27, was also quantified. The colocalization coefficient M1 was computed as the fraction of Hsp27 colocalized with DAPI in the total Hsp27 area using the JACoP-plugin in FIJI.
# We hypothesized that peptides S78 and S82A could interfere with Ser78 phosphorylation while peptides S78A (Ser78 replaced by Ala78) would not affect the phosphorylation of Ser78 of Hsp27. […] RD cells were pre-treated with peptide S78, S78A or S82A at the concentrations of 25 μM for 2h and then infected with or without EV-A71 at an MOI of 40 for 6h.
# [2] = tested on: EV-A71 IRES activity; test: Dual-luciferase IRES reporter assay in HEK 293T cells pre-treated with peptides; details: 25 μM for 2 hours, 24 h (FIG. 11A)
# Procedure: (§2) FIGS. 10A-10K. Peptide S78 inhibited EV-A71 replication and propagation. (FIG. 10A) RD cells were pre-treated with peptides S78 or for 2 hours and infected with EV-A71 at the MOI of 10 for 6 hours. Cell lysates were collected for western blot assay. Hsp27 phosphorylation on Ser 15, 78, 82 were detected by specific antibodies. β-Actin were detected as internal control. (FIG. 10B) Densitometric analysis of FIG. 9A. (FIG. 10C) HEK 293T cells were pre-treated with peptides S78 or S78A at the concentration of 25 μM for 2 hours and then co-transfected with Hsp27-WT plasmid (800 ng), pIRES reporter plasmid (200 ng) and 2A^pro-expressing plasmid or 2AC110A-expressing plasmid (200 ng) for 24 h, then the luciferase activity was measured. (FIG. 10D-10E) RD cells were treated with peptides S78 or S78A and then infected with EV-A71. EV-A71 VP1 were detected. (FIG. 10F) RD cells were treated with peptides and then infected with EV-A71 at the MOI of 1 for 12 hours. The EV-A71-induced CPE was captured. (FIG. 10G-10H) Intracellular viral RNA was extracted and quantified by qPCR. (FIG. 10I) Densitometric analysis FIG. 9D-E. (FIG. 10J) RD cells were treated with peptides S78 or and then infected with EV-A71 at the MOI of 1 for 12 hours. Extracellular viral RNA was extracted and quantified by qPCR. (FIG. 10K) Viral titration was calculated by TCID50. The Statistical analyses were carried out using Student's t-test. *: p<0.05, **: p<0.01, ***: p<0.001. Data are expressed as mean ±SD.
# (§3) FIGS. 11A-11G Inhibition of EV-A71 Protein Translation and Viral Reproduction by peptide S82A. (FIG. 11A) HEK 293T cells were pre-treated with peptides NC, S78, S78A, S82A, or S78-3A at the concentration of 25 μM for 2 hours and then co-transfected with Hsp27-WT plasmid (800 ng), pIRES reporter plasmid (200 ng) and 2A^pro-expressing plasmid for 24 h, then the luciferase activity was measured. (FIG. 11B) RD cells were pre-treated with peptides NC at indicated concentrations for 2 hours and infected with EV-A71 at the MOI of 1 for 9 hours. Intracellular viral RNA was extracted and quantified by qPCR. […] EV-A71 VP1 were detected. β-Actin was detected as an internal control. (FIG. 11F) Densitometric analysis of the EV-A71 VP1 level in FIG. S7C-E was quantified and normalized with β-Actin using ImageJ. […] Viral titration was calculated. […] Data are expressed as mean ±SD.
# HEK 293T cells were seeded in 24-wells, and then co-transfected with plasmids to simultaneously express 2A^pro (200 ng), pIRES reporter (200 ng), and the wild-type Hsp27 or its mutants (800 ng). […] The Renilla luciferase (RLuc) and Firefly luciferase (FLuc) activity were determined by using a dual-luciferase reporter assay (Promega) according to the manufacturer's instructions in a Lumat LB9507 bioluminometer.
# [3] = tested on: EV-A71 VP1; test: Western blot of EV-A71 VP1 level in RD cells; details: for reduction of VP1 level (densitometric assay): 50 μM; for EV-A71 VP1 protein level (in words): indicated concentrations
# Procedure: as §2
# FIGS. 11A-11G Inhibition of EV-A71 Protein Translation and Viral Reproduction by peptide S82A. (FIG. 11A) HEK 293T cells were pre-treated with peptides NC, S78, S78A, S82A, or S78-3A at the concentration of 25 μM for 2 hours and then co-transfected with Hsp27-WT plasmid (800 ng), pIRES reporter plasmid (200 ng) and 2A^pro-expressing plasmid for 24 h, then the luciferase activity was measured. (FIG. 11B) RD cells were pre-treated with peptides NC at indicated concentrations for 2 hours and infected with EV-A71 at the MOI of 1 for 9 hours. Intracellular viral RNA was extracted and quantified by qPCR. (FIG. 11C-11E) RD cells were treated with peptides NC, S82A, or S78-3A at indicated concentrations for 2 hours and then infected with EV-A71 at the MOI of 1 for 9 hours. Cell lysates were collected for western blot assay. EV-A71 VP1 were detected. β-Actin was detected as an internal control. (FIG. 11F) Densitometric analysis of the EV-A71 VP1 level in FIG. S7C-E was quantified and normalized with β-Actin using ImageJ. (FIG. 11G) RD cells were treated with peptides S78, S78A, S82A, or S78-3A at the concentration of 25 μM for 2 hours and then infected with EV-A71 at the MOI of 0.1 for 24 hours. Viral titration was calculated. The Statistical analyses were carried out using Student's t-test. *: p<0.05, **: p<0.01, ***: p<0.001. Data are expressed as mean ±SD.
# After cell lysis in Nonidet-P40 (NP-40) buffer, the cell lysates were centrifuged, and the concentration was determined by Bradford assay (Bio-Rad). 20 μg of protein was used for 12% SDS-PAGE and transferred onto polyvinylidene fluoride membrane (PVDF) (GE, MA, USA). Following 5% bovine serum albumin (BSA) blocking for 1 hrs, the membrane was incubated with antibodies (1:1000) against Hsp27 (sc-13132), pHsp27-Ser15 (ab76313), pHsp27-Ser78 (ADI-SPA-523), pHsp27-Ser82 (ab155987), VP1 (GTX132339), β-Actin (sc-47778), hnRNP A1 (sc-32301), or GAPDH (sc-32233) overnight in 4° C. After secondary antibodies (HRP-conjugated Affinipure Goat Anti-Mouse IgG(H+L), SA00001-1, and HRP-conjugated Affinipure Goat Anti-Rabbit IgG(H+L), SA00001-2) incubation for 1 hrs, the protein was visualized with a chemiluminescence reagent (PerkinElmer, MA, USA) on Bio-Rad Chemidoc Imaging System. The protein bands were quantified by densitometry with ImageJ if necessary.
# [4] = tested on: EV-A71; test: Virus titration (TCID50); details: 25 μM for 2 hours, EV-A71 MOI 0.1 for 24 hours, RD cells (FIG. 11G)
# Procedure: as §2, with “The Statistical analyses were carried out using Student's t-test. *: p<0.05, **: p<0.01, ***: p<0.001.” left out
# as §3, with “(FIG. 11B) RD cells were pre-treated with peptides NC at indicated concentrations for 2 hours and infected with EV-A71 at the MOI of 1 for 9 hours.” left out, “±SD. […]” for “±SD.”
# [5] = tested on: RD cells; test: CCK-8 assay; details: data not shown
# Procedure: (§4) RD cells were seeded in 96-well cell plates (1×10^4/well) and placed in the 5% CO2 incubator for 1 day. Then the cells were treated with peptides for 2 days. 90 μl medium and 10 μl of CCK-8 (BioSharp, BS350B) was added to each well of the 96-well plate, which were incubated at 37° C. for 1 h. A microplate reader (BioTek, Synergy H1) was used to measure the OD value of each well at 450 nm.
# [6] = tested on: 2Apro-induced relocalization of Hsp27 and hnRNP A1 in RD cells; test: Immunofluorescence colocalization assay of 2Apro-induced relocalization of Hsp27 and hnRNP A1; details: 25 μM for 2 hours, transfected with 2Apro for 24 hours
# Procedure: FIGS. 9A-9B Peptide S78 blocks the 2A^pro-induced relocalization of Hsp27 and hnRNP A1. RD cells on the coverslips were treated with peptides (S78, S78A, and S82A) at the concentration of 25 μM for 2 hours, and then transfected with 2A^pro for 24 hours. The cells were fixed and stained with anti-Hsp27and anti-hnRNPAI, followed by Alexa Fluor 488-conjugated anti-rabbit antibody and Alexa Fluor 594-conjugated anti-mouse antibody. The nuclei were stained with Hoechst. The images were captured by Nikon A1HD25 Confocal Microscope. The JACoP-plugin of the extended ImageJ version Fiji was used to compute the M1 colocalization coefficient, in which (FIG. 9A) is M1 colocalization coefficient for the fraction of Hsp27 in Hoechst and (FIG. 9B) is the M1 colocalization coefficient for the fraction of hnRNP A1 in Hoechst. Statistical analyses were carried out using Student's t-test. *: p<0.05, **: p<0.01, ***: p<0.001. Data are expressed as mean ±SD.
# as §1
# [7] = CCK-8 assay; details: human; RD cells, data not shown
# Procedure: as §4
Substance,redistribution of Hsp27 and hnRNP A1 in EV-A71-infected RD cells [1],effect on viral IRES activity (in words) [2],reduction of VP1 level (densitometric assay) [3],EV-A71 VP1 protein level (in words) [3],effect on viral titer (in words) [4],CC50 (in words) [5],localization of Hsp27 and hnRNP A1 in mock RD cells ([1]; without EV-A71),2Apro-induced relocalization of Hsp27 and hnRNP A1 [6],CC50 at 2 days [7]
Ac-RKKRRQRRRAYSRAAAAQLSS-NH2 [S78-3A],partially suppressed,mildly decreased,about 60%,much weaker,mildly decreased,high,,,
Ac-RKKRRQRRRAYSRALSRQLAS-NH2 [S82A],dramatically blocked,,> 90%,a little bit weaker inhibition,,,not affected,almost completely blocked,> 600 µM
